From PMC9127750, “Structure-based design of CDC42 effector interaction inhibitors for the treatment of cancer” (Cell reports, 2022)
Several values for one entry are separate records, joined by “and”; a condition that tells them apart may be missing. Equal values may be shown once.

System: WM3248 melanoma cells, 486 antibodies
Assay: Reverse phase protein arrays (RPPA);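 for CA9.R.C RPPA level: ratio of treated to vehicle (0 µM) normalized linear protein signal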;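 for CD171.M.V RPPA level: ratio of treated to vehicle (0 µM) normalized linear protein signal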;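 for CREB pS133.R.C RPPA level: ratio of treated to vehicle (0 µM) normalized linear protein signal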;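 for Cyclin.B1.R.V RPPA level: ratio of treated to vehicle (0 µM) normalized linear protein signal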
Type: cell-based, Human
Conditions: 5 uM
Text: Pellets were snap frozen in liquid nitrogen and shipped to MD Anderson Cancer Center core RPPA facility for RPPA analysis (Table S5). Three biological replicates for each sample were generated.
Nomenclatures on the RPPA heatmaps: name_of_antibody.species_of_antibody.status_of_antibody. V - antibody validated; C - validation of antibody in progress; Q - antibody nonspecific; E – under evaluation; antibodies raised in M - mouse, G - goat, R - rabbit, or T - rat.

## CN(C)c1cccc(Nc2cc(-c3ccccc3)nc(C3CCNCC3)n2)c1 [ARN22089, N1,N1-dimethyl-N3-(6-phenyl-2-(piperidin-4-yl)pyrimidin-4-yl)benzene-1,3-diamine]
Individual replicates
  RPPA signal, antibody Vinculin.M.V: 0.948 and 1.034 and 1.010
  RPPA signal, antibody WIPI1.R.C: 1.016 and 0.609
  RPPA signal, antibody WIPI2.R.C: 0.917 and 1.190 and 1.151
  RPPA signal, antibody WTAP.R.V: 1.007 and 0.770 and 0.970
  RPPA signal, antibody Wee1.R.C: 0.852 and 1.576 and 1.161
  RPPA signal, antibody Wee1_pS642.R.C: 0.857 and 1.327 and 1.158
  RPPA signal, antibody XBP.1.G.C: 1.019 and 0.701
  RPPA signal, antibody XIAP.R.C: 1.016 and 1.128
  RPPA signal, antibody XPA.M.V: 1.083 and 0.917 and 1.035
  RPPA signal, antibody XPF.R.C: 0.939 and 1.048
  RPPA signal, antibody XRCC1.R.C: 1.023 and 0.932 and 0.869
  RPPA signal, antibody YAP.R.C: 1.026 and 0.858 and 1.131
  RPPA signal, antibody YAP_pS127.R.V: 0.924 and 0.808 and 1.102
  RPPA signal, antibody YB1_pS102.R.V: 0.854 and 0.995
  RPPA signal, antibody YES1.R.V: 1.034 and 0.913 and 0.948
  RPPA signal, antibody YTHDF2.R.V: 1.139 and 0.982 and 0.641
  RPPA signal, antibody YTHDF3.R.C: 0.920 and 0.753
  RPPA signal, antibody ZAP.70.R.V: 0.901 and 1.193
  RPPA signal, antibody ZEB1.R.V: 0.874 and 1.035
replicates
  C.Raf.R.C RPPA level: 0.877 and 1.136
  C.Raf_pS338.R.V RPPA level: 1.205
  CA9.R.C RPPA level: 0.982 and 0.948 and 1.015
  CD2.M.C RPPA level: 1.000 and 0.961 and 1.133
  CD4.R.V RPPA level: 0.886 and 1.117
  CD5.M.C RPPA level: 1.034 and 0.973
  CD20.R.C RPPA level: 1.057 and 0.829 and 0.477
  CD26.R.V RPPA level: 0.893 and 1.128 and 0.797
  CD29.M.V RPPA level: 0.991 and 0.954 and 1.138
  CD31.M.V RPPA level: 1.000 and 0.925 and 1.157
  CD38.R.C RPPA level: 0.963 and 1.191 and 1.116
  CD44.R.C RPPA level: 0.984 and 0.955 and 0.823
  CD45.M.V RPPA level: 1.027 and 0.978 and 1.076
  CD49b.M.V RPPA level: 1.059 and 0.901 and 0.919
  CD68.M.C RPPA level: 1.053 and 0.950 and 1.032
  CD74.M.V RPPA level: 0.953
  CD134.R.V RPPA level: 1.004 and 0.980 and 1.076
  CD171.M.V RPPA level: 0.646 and 0.896 and 0.990
  CDK1_pT14.R.C RPPA level: 0.964 and 1.128
  CDK9.R.V RPPA level: 1.046 and 0.940 and 0.953
  CDKN2A.R.C RPPA level: 1.033 and 0.974 and 1.120
  CDT1.R.V RPPA level: 1.009 and 1.034
  CENP.A.R.V RPPA level: 1.061 and 0.838 and 0.961
  CIITA.R.C RPPA level: 0.973 and 0.944 and 0.768
  COG3.R.V RPPA level: 1.020 and 1.162 and 1.108
  CRABP1.R.C RPPA level: 1.003 and 1.061
  CRABP2.R.V RPPA level: 1.206 and 0.955 and 0.945
  CREB_pS133.R.C RPPA level: 0.945 and 1.492 and 0.936
  CSK.R.C RPPA level: 1.015 and 1.119 and 0.620
  Calnexin.R.V RPPA level: 0.967 and 1.097
  Caspase.3.cleaved.R.C RPPA level: 0.926 and 1.159
  Caspase.7.cleaved..R.C RPPA level: 0.858 and 1.158
  Caspase.8.M.Q RPPA level: 1.096 and 0.944
  Caspase.8.cleaved.R.C RPPA level: 0.924 and 1.111 and 1.128
  Caveolin.1.R.V RPPA level: 0.498 and 0.935 and 1.046
  Cdc6.R.V RPPA level: 0.936
  Cdc42.R.C RPPA level: 0.966 and 1.031
  Chk1.M.C RPPA level: 1.078 and 0.961
  Chk1_pS296.R.V RPPA level: 0.982 and 1.154 and 1.114
  Chk1_pS345.R.C RPPA level: 1.000 and 1.084 and 0.861
  Chk2.M.V RPPA level: 1.157 and 0.671
  Chk2_pT68.R.C RPPA level: 0.939 and 1.327 and 1.189
  Claudin.7.R.V RPPA level: 1.057 and 0.909 and 0.755
  Collagen.VI.R.V RPPA level: 1.076 and 0.844 and 1.257
  Complex.II.Subunit.M.V RPPA level: 1.008 and 1.014 and 0.777
  Connexin.43.R.C RPPA level: 1.009 and 1.236
  Coup.TFII.R.C RPPA level: 0.833 and 1.226
  Cox2.R.C RPPA level: 1.024 and 0.895 and 1.250
  Cox.IV.R.V RPPA level: 0.999 and 1.060 and 1.025
  Creb.R.C RPPA level: 1.026 and 1.133 and 1.082
  CtIP.R.V RPPA level: 0.829 and 1.057 and 0.997
  Cyclin.B1.R.V RPPA level: 1.136 and 0.725 and 1.229
  Cyclin.D1.R.C RPPA level: 1.048 and 0.891 and 1.065
  Cyclin.D3.M.V RPPA level: 1.309 and 1.005 and 0.824
  Cyclin.E1.R.V RPPA level: 1.096 and 0.925 and 0.965
  Cyclophilin.F.M.V RPPA level: 0.978 and 1.019 and 0.727
  D.a.Tubulin.R.V RPPA level: 0.975 and 1.193
  DAPK1_pS308.M.C RPPA level: 1.267 and 0.870 and 0.330
  DAPK2.R.C RPPA level: 0.970 and 1.126 and 1.124
  DDB.1.R.V RPPA level: 0.890 and 0.958 and 1.524
  DDR1.R.V RPPA level: 1.024 and 0.829 and 1.002
  DDR1_pY513.R.C RPPA level: 1.024 and 0.961 and 1.078
  DJ1.R.V RPPA level: 1.007 and 1.125
  DM.Histone.H3.R.V RPPA level: 0.950 and 1.152 and 1.117
  DM.K9.Histone.H3.M.V RPPA level: 1.035 and 0.996
  DNA.Ligase.IV.R.C RPPA level: 1.015 and 1.171 and 1.125
  DNA_POLG.R.V RPPA level: 1.082 and 0.866 and 0.834
  c.Jun_pS73.R.V RPPA level: 0.903 and 1.005
  c.Kit.R.V RPPA level: 1.119 and 0.884 and 0.682
  c.Met_pY1234_Y1235.R.V RPPA level: 0.935 and 1.110 and 1.140
  c.Myc.R.C RPPA level: 1.016 and 0.996 and 1.017
  cGAS.R.V RPPA level: 1.013 and 0.955
  cdc2_pY15.R.C RPPA level: 0.982 and 1.425 and 1.193
  cdc25C.R.V RPPA level: 0.985 and 0.925 and 0.943
Single replicates
  RPPA MYH11.R.C: 1.049 and 0.899 and 0.794
  RPPA Myosin.IIa.R.C: 0.881 and 0.604
  RPPA Myosin.IIa_pS1943.R.V: 1.019 and 0.869 and 0.642
  RPPA Myt1.R.C: 0.900
  RPPA N.Cadherin.R.V: 1.025 and 0.927 and 1.105
  RPPA N.Ras.M.V: 1.017 and 0.997
  RPPA NAPSIN.A.R.C: 0.989 and 1.114 and 1.136
  RPPA NDRG1_pT346.R.V: 0.757 and 1.000 and 1.113
  RPPA NDUFB4.R.V: 1.030 and 0.897
  RPPA NRF2.R.C: 0.980 and 1.023 and 1.172
  RPPA Notch1.R.V: 0.979 and 0.930
  RPPA Notch1.cleaved.R.V: 0.872 and 1.026
  RPPA Notch3.R.C: 0.916 and 1.149
  RPPA Oct.4.R.C: 1.033 and 1.165 and 1.085
  RPPA P.Cadherin.R.C: 0.913 and 1.419 and 0.819
  RPPA PAI.1.M.V: 0.893 and 0.953 and 1.083
  RPPA PAICS.R.C: 1.002 and 0.988 and 0.707
  RPPA PAK1.R.V: 1.101
  RPPA PAK4.R.V: 0.901 and 0.983
  RPPA PAK_pS474_S602_S560.R.V: 1.077 and 0.883 and 0.855
  RPPA PAK_pT423_T402.R.C: 0.941 and 1.054 and 0.768
  RPPA PAR.R.C: 1.057 and 2.014 and 0.910
  RPPA PARG.R.C: 0.916 and 0.961 and 1.160
  RPPA PARP.R.V: 0.918 and 1.359 and 0.791
  RPPA PAX6.R.V: 0.958 and 1.096
  RPPA PAX8.R.C: 1.084 and 0.915 and 0.888
  RPPA PCNA.M.C: 0.983 and 0.768
  RPPA PD.1.R.V: 1.028 and 0.932 and 1.016
  RPPA PD.L1.R.C: 0.986 and 1.136
  RPPA PDH.M.V: 1.030 and 0.955 and 1.162
  RPPA PDHA1.R.V: 0.999 and 1.134 and 1.104
  RPPA PDHK1.R.C: 0.895 and 1.143 and 1.132
  RPPA PDK1.R.V: 0.979 and 1.236 and 0.914
  RPPA PDK1_pS241.R.V: 1.012 and 1.286 and 1.116
  RPPA PEA.15.R.V: 0.973 and 1.022 and 0.716
  RPPA PEA.15_pS116.R.V: 1.025 and 1.082
  RPPA PERK.R.V: 0.799 and 0.886
  RPPA PGM1.R.V: 0.922
  RPPA PHGDH.R.C: 1.026 and 1.054 and 1.162
  RPPA PHLPP.R.V: 1.309 and 0.725 and 0.733
  RPPA PI3K.p85.R.C: 0.979
  RPPA PI3K.p110.a.R.C: 0.889 and 1.115 and 1.166
  RPPA PI3K.p110.b.M.C: 1.076 and 0.970 and 0.893
  RPPA PKA.a.R.V: 1.082 and 0.998 and 0.958
  RPPA PKC.a.b.II_pT638_T641.R.V: 0.773 and 0.933
  RPPA PKC.b.II_pS660.R.V: 0.932 and 1.415 and 1.139
  RPPA PKCa.R.V: 0.879 and 2.309 and 1.199
  RPPA PKM2.R.C: 0.777
  RPPA PLC.gamma1.R.V: 1.266 and 0.848 and 0.796
  RPPA PLC.gamma1_pS1248.R.V: 1.131 and 1.203 and 0.848
  RPPA PLC.gamma2_pY759.R.V: 0.953
  RPPA PLK1.R.C: 0.988 and 0.536 and 1.237
  RPPA PMS2.R.V: 1.054 and 0.898 and 0.867
  RPPA PR.R.V: 1.016 and 0.968 and 1.112
  RPPA PRAS40.M.C: 1.006 and 0.977 and 0.990
  RPPA PRAS40_pT246.R.V: 0.957 and 1.288 and 0.838
  RPPA PRC1_pT481.R.C: 0.841 and 0.955
  RPPA PREX1.R.V: 0.972 and 0.995 and 1.201
  RPPA PTEN.R.V: 0.880 and 1.147
  RPPA PTPN12.R.V: 1.009 and 1.217 and 1.054
  RPPA PYGB.R.V: 0.990 and 0.966 and 0.675
  RPPA PYGM.M.C: 1.013 and 0.953 and 0.526
  RPPA Patched.R.C: 0.925 and 1.120 and 1.169
  RPPA Paxillin.R.C: 0.754 and 1.008 and 1.170
  RPPA Pdcd4.R.C: 0.973 and 1.288 and 1.207
  RPPA Porin.M.V: 1.021 and 0.963 and 0.824
  RPPA Puma.R.C: 1.003 and 0.771
  RPPA Pyk2_pY402.R.C: 0.977 and 1.146 and 1.149
  RPPA RBM15.R.V: 0.950 and 1.004 and 0.982
